Assay results as given in ChEMBL document CHEMBL5465560, “Selectivity Literature for EUbOPEN Chemogenomic Library” (2024).
pKi: −log10 of the molar value. Blank lines part the entries; values can stand above or below the compound they belong to.

Assays:
[1] = biological target: Hepatocyte growth factor receptor (Homo sapiens, UniProt P08581); test: Selectivity interaction (Kinase counterscreening (biochemical assay)) EUB0000604a MET
[2] = biological target: Cyclin-dependent kinase 17 (Homo sapiens) (UniProt Q00537); test: Selectivity interaction (KinomeScan (DiscoverX)) EUB0001049a CDK17; conditions: at 1 µM
[3] = biological target: Serine/threonine-protein kinase WNK1 (Homo sapiens) (UniProt Q9H4A3); test: Selectivity interaction (KinomeScan (DiscoverX)) EUB0001049a WNK1; conditions: at 1 µM
[4] = biological target: T1, Serine/threonine-protein kinase haspin (Homo sapiens) (UniProt Q8TF76); test: Selectivity interaction (Kinase panel (Invitrogen)) EUB0000639a GSG2; conditions: at 200 nM
T1 sequence (whole entry): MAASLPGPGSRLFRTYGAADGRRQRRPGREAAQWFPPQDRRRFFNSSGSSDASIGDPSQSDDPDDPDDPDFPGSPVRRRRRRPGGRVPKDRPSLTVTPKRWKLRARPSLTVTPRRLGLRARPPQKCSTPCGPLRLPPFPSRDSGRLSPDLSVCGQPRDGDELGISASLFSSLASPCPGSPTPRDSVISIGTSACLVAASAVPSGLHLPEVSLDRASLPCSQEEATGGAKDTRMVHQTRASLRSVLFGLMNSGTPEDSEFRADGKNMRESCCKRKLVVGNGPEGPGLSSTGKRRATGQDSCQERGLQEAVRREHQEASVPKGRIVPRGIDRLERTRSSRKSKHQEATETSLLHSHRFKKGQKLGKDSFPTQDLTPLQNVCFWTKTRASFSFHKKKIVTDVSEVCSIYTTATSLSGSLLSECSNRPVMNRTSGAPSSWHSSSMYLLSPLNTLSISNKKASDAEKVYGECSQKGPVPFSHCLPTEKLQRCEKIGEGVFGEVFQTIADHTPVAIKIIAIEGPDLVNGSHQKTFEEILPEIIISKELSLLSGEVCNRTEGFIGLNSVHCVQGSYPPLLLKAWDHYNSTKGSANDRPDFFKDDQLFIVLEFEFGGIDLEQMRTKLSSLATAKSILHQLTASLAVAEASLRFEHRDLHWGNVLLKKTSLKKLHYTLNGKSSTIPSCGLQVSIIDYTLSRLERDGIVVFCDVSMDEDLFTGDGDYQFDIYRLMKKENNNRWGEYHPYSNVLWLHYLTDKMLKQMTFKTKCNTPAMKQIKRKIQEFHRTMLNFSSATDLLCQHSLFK

[5] = biological target: Cyclin-dependent kinase 17 (Homo sapiens) (UniProt Q00537); test: Selectivity interaction (ActivX KiNativ screen (kinase selectivity in THP-1 cell lysates)) EUB0000639a CDK17; type: subcellular; conditions: lysate, at 5 µM
[6] = biological target: Tyrosine-protein kinase ABL2 (Homo sapiens, UniProt P42684); test: Selectivity interaction (Kinase panel (Invitrogen)) EUB0000639a ABL2; conditions: at 200 nM
[7] = biological target: Serine/threonine-protein kinase mTOR (Homo sapiens, UniProt P42345); test: Selectivity interaction (KinomeScan (DiscoverX)) EUB0000229b MTOR; conditions: at 10 µM
[8] = biological target: Protein-tyrosine kinase 2-beta (Homo sapiens) (UniProt Q14289); test: Selectivity interaction (KinomeScan (DiscoverX)) EUB0001079a PTK2B; conditions: at 1 µM
EML4-ALK (Homo sapiens) = EML4-ALK (Homo sapiens) (UniProt Q9UM73+Q9HC35); test: Selectivity interaction (ProQinase) EUB0000171b ALK; type: protein assay; conditions: at 1 µM
[9] = biological target: Tyrosine-protein kinase Fer (Homo sapiens) (UniProt P16591); test: Selectivity interaction (KinomeScan (DiscoverX)) EUB0000045b FER
[10] = biological target: Mitogen-activated protein kinase 7 (Homo sapiens) (UniProt Q13164); test: Selectivity interaction (KinomeScan (DiscoverX)) EUB0000045b MAPK7
[11] = biological target: Insulin-like growth factor 1 receptor (Homo sapiens, UniProt P08069); test: Selectivity interaction (KinomeScan (DiscoverX)) EUB0000607a IGF1R; conditions: at 10 µM
[12] = biological target: SRSF protein kinase 2 (Homo sapiens) (UniProt P78362); test: Selectivity interaction (SelectScreen profiling (Invitrogen)) EUB0000607a SRPK2; conditions: at 2 µM
[13] = biological target: T2, Tyrosine-protein kinase Mer (Homo sapiens) (UniProt Q12866); test: Selectivity interaction (KinomeScan (DiscoverX)) EUB0000607a MERTK; conditions: at 10 µM
T2 sequence (whole entry): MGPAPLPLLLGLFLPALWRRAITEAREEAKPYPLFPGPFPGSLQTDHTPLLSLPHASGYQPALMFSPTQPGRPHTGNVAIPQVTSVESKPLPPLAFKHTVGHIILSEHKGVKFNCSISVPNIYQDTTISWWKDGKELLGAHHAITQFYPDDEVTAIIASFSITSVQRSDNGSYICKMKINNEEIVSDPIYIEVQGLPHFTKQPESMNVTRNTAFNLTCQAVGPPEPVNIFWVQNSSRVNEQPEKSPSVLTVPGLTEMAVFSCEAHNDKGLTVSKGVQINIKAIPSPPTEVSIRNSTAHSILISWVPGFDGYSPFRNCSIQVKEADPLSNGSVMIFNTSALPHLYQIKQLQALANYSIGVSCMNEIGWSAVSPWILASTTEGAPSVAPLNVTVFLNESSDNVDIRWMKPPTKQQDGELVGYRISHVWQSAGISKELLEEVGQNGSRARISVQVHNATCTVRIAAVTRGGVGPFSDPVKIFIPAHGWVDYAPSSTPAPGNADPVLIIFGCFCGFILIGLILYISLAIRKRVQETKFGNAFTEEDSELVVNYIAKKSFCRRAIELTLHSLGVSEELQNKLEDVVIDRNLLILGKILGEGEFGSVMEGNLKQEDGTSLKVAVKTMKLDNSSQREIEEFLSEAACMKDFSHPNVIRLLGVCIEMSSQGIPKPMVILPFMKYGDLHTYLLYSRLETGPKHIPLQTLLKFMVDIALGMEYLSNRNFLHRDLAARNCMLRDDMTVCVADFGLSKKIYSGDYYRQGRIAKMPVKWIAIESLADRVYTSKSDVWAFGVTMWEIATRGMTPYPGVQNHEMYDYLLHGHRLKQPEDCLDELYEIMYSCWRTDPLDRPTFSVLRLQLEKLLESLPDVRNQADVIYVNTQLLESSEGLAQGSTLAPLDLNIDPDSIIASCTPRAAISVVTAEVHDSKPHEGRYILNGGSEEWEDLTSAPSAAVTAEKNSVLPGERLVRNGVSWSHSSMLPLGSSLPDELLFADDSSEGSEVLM

Tyrosine-protein kinase Fer (Homo sapiens), sequence (P16591 whole entry, looked up): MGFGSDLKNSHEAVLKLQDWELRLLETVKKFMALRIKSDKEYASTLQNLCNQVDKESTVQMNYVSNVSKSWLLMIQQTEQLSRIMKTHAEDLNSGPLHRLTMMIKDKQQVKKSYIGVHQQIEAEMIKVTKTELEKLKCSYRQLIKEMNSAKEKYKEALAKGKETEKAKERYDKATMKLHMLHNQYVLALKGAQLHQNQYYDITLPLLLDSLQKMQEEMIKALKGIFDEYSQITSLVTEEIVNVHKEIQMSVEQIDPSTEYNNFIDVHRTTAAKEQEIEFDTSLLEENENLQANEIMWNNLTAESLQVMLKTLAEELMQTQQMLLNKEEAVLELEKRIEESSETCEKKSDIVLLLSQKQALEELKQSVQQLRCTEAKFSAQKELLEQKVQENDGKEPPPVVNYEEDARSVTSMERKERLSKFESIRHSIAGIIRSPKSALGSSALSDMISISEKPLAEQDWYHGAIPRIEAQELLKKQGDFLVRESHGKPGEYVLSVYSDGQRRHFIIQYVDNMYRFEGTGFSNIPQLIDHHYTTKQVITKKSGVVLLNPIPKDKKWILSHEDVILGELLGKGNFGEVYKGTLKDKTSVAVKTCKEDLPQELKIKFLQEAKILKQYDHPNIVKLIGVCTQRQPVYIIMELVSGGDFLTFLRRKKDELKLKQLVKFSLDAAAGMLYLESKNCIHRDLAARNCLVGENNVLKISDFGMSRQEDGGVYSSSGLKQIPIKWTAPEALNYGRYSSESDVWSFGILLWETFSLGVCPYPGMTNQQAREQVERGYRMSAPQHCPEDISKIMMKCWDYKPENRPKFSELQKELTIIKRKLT
Mitogen-activated protein kinase 7 (Homo sapiens), sequence (Q13164 2-816 limits assumed): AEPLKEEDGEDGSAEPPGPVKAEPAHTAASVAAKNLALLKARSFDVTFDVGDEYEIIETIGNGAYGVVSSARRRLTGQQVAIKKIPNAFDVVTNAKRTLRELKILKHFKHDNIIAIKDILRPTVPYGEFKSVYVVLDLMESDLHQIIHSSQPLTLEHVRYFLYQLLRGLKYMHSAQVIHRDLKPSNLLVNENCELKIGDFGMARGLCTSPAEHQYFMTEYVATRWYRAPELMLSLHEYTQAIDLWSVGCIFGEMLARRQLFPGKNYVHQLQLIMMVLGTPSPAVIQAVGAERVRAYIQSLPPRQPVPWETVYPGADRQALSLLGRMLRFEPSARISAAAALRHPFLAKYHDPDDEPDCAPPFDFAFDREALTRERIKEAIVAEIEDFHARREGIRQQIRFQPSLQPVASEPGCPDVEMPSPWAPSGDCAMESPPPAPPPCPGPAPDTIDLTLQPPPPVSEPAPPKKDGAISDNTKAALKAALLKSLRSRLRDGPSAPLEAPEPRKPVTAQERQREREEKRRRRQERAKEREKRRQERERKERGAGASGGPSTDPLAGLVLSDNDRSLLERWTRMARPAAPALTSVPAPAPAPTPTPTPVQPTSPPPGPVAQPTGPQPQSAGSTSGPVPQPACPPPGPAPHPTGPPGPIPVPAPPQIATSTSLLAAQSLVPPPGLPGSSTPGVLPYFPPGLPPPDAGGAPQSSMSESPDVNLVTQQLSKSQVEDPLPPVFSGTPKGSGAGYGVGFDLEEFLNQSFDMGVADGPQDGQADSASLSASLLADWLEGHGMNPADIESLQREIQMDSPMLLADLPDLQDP
Cyclin-dependent kinase 17 (Homo sapiens), sequence (Q00537 whole entry, looked up): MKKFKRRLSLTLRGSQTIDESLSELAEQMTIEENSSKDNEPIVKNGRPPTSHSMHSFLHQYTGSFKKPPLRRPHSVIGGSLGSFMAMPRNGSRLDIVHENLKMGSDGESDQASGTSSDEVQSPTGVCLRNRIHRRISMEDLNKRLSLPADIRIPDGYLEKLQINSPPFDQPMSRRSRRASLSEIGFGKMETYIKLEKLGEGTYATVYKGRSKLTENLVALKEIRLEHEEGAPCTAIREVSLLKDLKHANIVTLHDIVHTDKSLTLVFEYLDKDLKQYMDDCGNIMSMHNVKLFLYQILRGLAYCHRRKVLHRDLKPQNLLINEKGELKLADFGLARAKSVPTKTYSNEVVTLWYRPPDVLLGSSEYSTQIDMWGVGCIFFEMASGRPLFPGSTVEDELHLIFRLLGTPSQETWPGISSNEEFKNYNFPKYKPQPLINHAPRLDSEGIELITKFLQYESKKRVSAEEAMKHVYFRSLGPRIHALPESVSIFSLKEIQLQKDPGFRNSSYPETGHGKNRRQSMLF
Insulin-like growth factor 1 receptor, sequence (P08069 31-736 limits assumed): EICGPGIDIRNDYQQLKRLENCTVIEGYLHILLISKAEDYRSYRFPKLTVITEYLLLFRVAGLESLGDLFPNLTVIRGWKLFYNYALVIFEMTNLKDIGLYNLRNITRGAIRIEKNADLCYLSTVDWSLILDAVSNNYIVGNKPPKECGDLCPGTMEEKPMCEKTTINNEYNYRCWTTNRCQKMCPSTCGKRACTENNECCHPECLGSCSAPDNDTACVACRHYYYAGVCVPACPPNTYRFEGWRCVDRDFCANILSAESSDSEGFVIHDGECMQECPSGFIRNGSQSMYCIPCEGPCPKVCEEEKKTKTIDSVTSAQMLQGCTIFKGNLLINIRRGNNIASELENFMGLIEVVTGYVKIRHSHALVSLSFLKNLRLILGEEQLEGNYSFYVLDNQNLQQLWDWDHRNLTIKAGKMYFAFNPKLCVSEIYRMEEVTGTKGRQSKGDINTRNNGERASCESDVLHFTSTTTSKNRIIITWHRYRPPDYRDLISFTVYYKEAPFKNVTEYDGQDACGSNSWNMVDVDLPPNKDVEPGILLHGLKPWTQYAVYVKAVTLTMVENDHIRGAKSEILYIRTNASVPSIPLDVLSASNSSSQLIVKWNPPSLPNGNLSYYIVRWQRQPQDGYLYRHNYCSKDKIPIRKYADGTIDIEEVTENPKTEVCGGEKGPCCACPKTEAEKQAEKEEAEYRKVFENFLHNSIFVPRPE
Insulin-like growth factor 1 receptor, sequence (P08069 741-1367 limits assumed): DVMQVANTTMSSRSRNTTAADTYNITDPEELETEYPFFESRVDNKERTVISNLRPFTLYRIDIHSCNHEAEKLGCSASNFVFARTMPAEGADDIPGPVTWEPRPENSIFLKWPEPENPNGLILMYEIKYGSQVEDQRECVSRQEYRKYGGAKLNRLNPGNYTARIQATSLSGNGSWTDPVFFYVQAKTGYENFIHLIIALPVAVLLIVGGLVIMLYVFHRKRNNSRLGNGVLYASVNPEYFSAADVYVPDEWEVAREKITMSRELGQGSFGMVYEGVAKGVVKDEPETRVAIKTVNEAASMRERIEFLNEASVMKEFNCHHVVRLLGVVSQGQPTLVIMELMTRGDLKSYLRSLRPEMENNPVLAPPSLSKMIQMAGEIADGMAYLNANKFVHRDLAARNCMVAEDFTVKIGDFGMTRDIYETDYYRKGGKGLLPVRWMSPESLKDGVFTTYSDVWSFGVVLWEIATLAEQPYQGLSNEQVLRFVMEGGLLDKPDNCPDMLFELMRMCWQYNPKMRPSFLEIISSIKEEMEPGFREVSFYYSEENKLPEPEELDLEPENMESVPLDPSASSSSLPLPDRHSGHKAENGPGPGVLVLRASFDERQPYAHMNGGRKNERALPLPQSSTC
SRSF protein kinase 2 (Homo sapiens), sequence (P78362 whole entry, looked up): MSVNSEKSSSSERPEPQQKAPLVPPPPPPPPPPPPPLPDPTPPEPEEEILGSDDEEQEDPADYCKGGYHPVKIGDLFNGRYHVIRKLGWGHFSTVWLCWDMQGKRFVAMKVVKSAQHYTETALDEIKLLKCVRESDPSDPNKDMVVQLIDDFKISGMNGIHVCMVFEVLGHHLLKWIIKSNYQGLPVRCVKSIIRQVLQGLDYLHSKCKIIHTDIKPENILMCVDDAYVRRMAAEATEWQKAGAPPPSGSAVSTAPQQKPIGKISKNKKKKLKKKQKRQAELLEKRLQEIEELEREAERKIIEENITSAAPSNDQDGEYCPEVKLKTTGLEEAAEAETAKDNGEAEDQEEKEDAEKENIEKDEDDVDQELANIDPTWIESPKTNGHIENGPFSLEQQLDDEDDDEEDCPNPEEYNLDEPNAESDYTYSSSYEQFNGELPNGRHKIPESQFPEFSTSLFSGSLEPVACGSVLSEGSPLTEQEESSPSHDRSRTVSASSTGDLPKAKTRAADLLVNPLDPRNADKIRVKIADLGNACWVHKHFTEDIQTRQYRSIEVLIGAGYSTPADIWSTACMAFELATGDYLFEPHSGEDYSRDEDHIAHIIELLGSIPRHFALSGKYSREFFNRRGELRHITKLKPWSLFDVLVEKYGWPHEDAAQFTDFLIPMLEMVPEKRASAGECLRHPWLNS

Compound: Cc1cnc(Nc2ccc(F)cc2Cl)nc1-c1c[nH]c(C(=O)N[C@H](CO)c2cccc(Cl)c2)c1
pKi [1]: < 5.40

Compound: COc1cc(Nc2nc(C)cc(-c3cnn4nc(OC)ccc34)n2)cc(C(F)(F)F)c1
% of control [2]: 100%
% of control [3]: 66%

% of inhibition [4]: 41.1%
% of inhibition [5]: 6.5%
% of inhibition [6]: -0.467%
Compound: CC[C@@H]1[C@H](F)C(=O)N[C@@H]1COc1nccc2cc(C(N)=O)c(OC)cc12 [ZIMLOVISERTIB]

Compound: COc1cc(N(C)c2ccnc3ccc(C(F)(F)F)cc23)cc(OC)c1OC
% binding [7]: 94%

Compound: Nc1cnc(N2CCc3cc(S(=O)(=O)Nc4c(F)cc(Cl)cc4F)cc(N4CCCC4=O)c32)nc1 [TP-020n]
% of control [8]: 100%

% of control (EML4-ALK (Homo sapiens)): 93%
Compound: C=CC(=O)Nc1cccc(C(=O)Nc2ccc(Nc3cc(-c4[nH]c(SC)nc4C)ccn3)cc2)c1

Compound: C=CC(=O)Nc1cc(-n2c(=O)ccc3cnc4ccc(-c5ccc(NS(C)(=O)=O)cc5)cc4c32)ccc1C
% of control ([9]; at 1 µM): 66%
% of control ([9]; at 10 µM): 89%
% of control ([10]; at 1 µM): 100%
% of control ([10]; at 10 µM): 100%

Compound: CNC(=O)Nc1ccc(-c2nc(N3CC4CCC(C3)O4)c3cnn(C4CCC5(CC4)OCCO5)c3n2)cc1
% of control [11]: 93%
% of inhibition [12]: 1%
% of control [13]: 87%
